Drawing on patent publication US20170233413A1, “SUBSTITUTED ANNULATED PYRIMIDINES AND USE THEREOF” (Bayer Pharma Aktiengesellschaft, priority 2014, published 2017), this text covers MEC and IC50 for 18 molecules.

Each structure is given as a SMILES string. pIC50: −log10 of the molar value.

For assay [1], the target named is T1, recombinant guanylate cyclase reporter cell line (Rattus norvegicus, UniProt P19686+P20595).
T1 construct: expressed in transfected cells
T1 sequence (P19686 1-690): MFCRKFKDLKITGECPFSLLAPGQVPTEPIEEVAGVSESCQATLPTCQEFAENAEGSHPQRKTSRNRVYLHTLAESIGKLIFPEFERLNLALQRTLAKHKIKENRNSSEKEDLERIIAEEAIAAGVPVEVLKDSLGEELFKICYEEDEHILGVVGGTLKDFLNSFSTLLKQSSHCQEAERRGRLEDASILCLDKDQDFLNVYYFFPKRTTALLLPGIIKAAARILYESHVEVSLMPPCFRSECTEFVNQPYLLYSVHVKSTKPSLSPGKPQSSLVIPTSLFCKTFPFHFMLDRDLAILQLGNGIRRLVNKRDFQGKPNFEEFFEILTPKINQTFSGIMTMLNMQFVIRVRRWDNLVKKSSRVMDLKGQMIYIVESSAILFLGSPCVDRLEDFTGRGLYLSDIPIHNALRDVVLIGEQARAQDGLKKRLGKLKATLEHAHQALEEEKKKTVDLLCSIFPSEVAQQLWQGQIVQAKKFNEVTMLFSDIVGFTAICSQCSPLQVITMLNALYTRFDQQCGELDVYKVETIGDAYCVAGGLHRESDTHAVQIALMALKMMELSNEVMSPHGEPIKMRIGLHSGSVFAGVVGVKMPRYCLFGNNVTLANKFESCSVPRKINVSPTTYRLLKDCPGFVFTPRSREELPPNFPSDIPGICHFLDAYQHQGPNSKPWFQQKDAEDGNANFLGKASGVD
T1 sequence (P20595 1-619): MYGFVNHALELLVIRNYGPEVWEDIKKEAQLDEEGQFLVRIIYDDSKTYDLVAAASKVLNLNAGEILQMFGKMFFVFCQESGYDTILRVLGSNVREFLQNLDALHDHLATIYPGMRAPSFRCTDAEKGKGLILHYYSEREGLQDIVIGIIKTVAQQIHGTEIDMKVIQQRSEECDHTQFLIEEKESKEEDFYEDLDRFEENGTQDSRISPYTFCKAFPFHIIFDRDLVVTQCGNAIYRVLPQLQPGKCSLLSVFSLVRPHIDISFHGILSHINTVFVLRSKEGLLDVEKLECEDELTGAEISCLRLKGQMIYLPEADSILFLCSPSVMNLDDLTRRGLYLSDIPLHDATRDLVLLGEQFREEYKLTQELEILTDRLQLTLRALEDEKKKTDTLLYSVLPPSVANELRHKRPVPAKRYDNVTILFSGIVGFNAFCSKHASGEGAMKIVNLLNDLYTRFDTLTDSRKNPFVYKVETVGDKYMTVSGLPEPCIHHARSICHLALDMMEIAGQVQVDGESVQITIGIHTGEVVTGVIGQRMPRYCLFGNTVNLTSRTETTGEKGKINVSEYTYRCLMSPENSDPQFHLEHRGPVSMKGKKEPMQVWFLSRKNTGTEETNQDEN
Briefly: Effect on a recombinant guanylate cyclase reporter cell line. To be noted: MEC = minimum effective concentration; in some cases means of individual determinations. In kind it is cell-based. In short, it runs like this:
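Cellular activity measured in a recombinant rat soluble guanylate cyclase reporter cell line. Values are minimum effective concentration (MEC), some given as means of individual determinations.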

The target in assay [2] is T2, human phosphodiesterase 5 (PDE 5) (Homo sapiens, UniProt O76074).
T2 construct: PDE 5 preparations are obtained from human platelets by disruption; from tissue; host or cells: human platelets
Briefly: Inhibition of human phosphodiesterase 5 (PDE 5). Format: biochemical. To be noted: PDE 5 preparation from human platelets; in some cases means of individual determinations. Put shortly: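 Enzyme partially purified from human platelets by Mono Q ion exchange, diluted so that under 70% of substrate converts. [8-3H]cGMP at 0.025 μCi per well in Tris pH 7.5 with MgCl2/EDTA, 60 min at room temperature, yttrium SPA bead read-out. Final compound concentrations 4–0.0018 μM; IC50 from concentration–inhibition plot.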

Consider `Cc1ccc(NC(=O)c2nc(-c3nn(Cc4ccccc4F)c4ncccc34)nc3c2C(C)(C)C(=O)N3)cn1` [Example 91, 2-[1-(2-fluorobenzyl)-1H-pyrazolo[3,4-b]pyridin-3-yl]-5,5-dimethyl-N-(6-methylpyridin-3-yl)-6-oxo-6,7-dihydro-5H-pyrrolo[2,3-d]pyrimidine-4-carboxamide], for which the MEC in assay [1] worked out at 0.3 µM. Also, the pIC50 in assay [2] is 7.17.
As for `CC1(C)C(=O)Nc2nc(-c3nn(Cc4ccccc4F)c4ncccc34)nc(C(=O)NCC3CCCC3)c21` [Example 92, N-(cyclopentylmethyl)-2-[1-(2-fluorobenzyl)-1H-pyrazolo[3,4-b]pyridin-3-yl]-5,5-dimethyl-6-oxo-6,7-dihydro-5H-pyrrolo[2,3-d]pyrimidine-4-carboxamide], the MEC in assay [1] came to 0.3 µM. In assay [2], this molecule showed a negative logarithm of the IC50 (pIC50) of 7.46.
As for `CC1(C)C(=O)Nc2nc(-c3nn(Cc4ccccc4F)c4ncccc34)nc(C(=O)Nc3nncs3)c21` [Example 93, 2-[1-(2-fluorobenzyl)-1H-pyrazolo[3,4-b]pyridin-3-yl]-5,5-dimethyl-6-oxo-N-(1,3,4-thiadiazol-2-yl)-6,7-dihydro-5H-pyrrolo[2,3-d]pyrimidine-4-carboxamide], the MEC in assay [1] is 0.1 µM. For the same molecule, the negative-log IC50 (pIC50) in assay [2] was 7.26.
For the molecule `CC1(C)C(=O)Nc2nc(-c3nn(Cc4ccccc4F)c4ncccc34)nc(C(=O)Nc3nnc[nH]3)c21` [Example 94, 2-[1-(2-fluorobenzyl)-1H-pyrazolo[3,4-b]pyridin-3-yl]-5,5-dimethyl-6-oxo-N-(4H-1,2,4-triazol-3-yl)-6,7-dihydro-5H-pyrrolo[2,3-d]pyrimidine-4-carboxamide], the MEC in assay [1] turned out to be 0.3 µM. In assay [2], this molecule gave a pIC50 of 7.80.
Turning to `CC1(C)C(=O)Nc2nc(-c3nn(Cc4ccccc4F)c4ncccc34)nc(C(=O)NCCC(N)=O)c21` [Example 95, N-(3-amino-3-oxopropyl)-2-[1-(2-fluorobenzyl)-1H-pyrazolo[3,4-b]pyridin-3-yl]-5,5-dimethyl-6-oxo-6,7-dihydro-5H-pyrrolo[2,3-d]pyrimidine-4-carboxamide], the MEC in assay [1] amounted to 1 µM. For the same molecule, the pIC50 in assay [2] was 7.32.
As for `CC1(C)C(=O)Nc2nc(-c3nn(Cc4ccccc4F)c4ncccc34)nc(C(=O)NCCOCC(F)(F)F)c21` [Example 96, 2-[1-(2-fluorobenzyl)-1H-pyrazolo[3,4-b]pyridin-3-yl]-5,5-dimethyl-6-oxo-N-[2-(2,2,2-trifluoroethoxy)ethyl]-6,7-dihydro-5H-pyrrolo[2,3-d]pyrimidine-4-carboxamide], the MEC in assay [1] came out at 0.03 µM. Also, in assay [2], the pIC50 was 7.21.
As for `CC1(NC(=O)c2nc(-c3nn(Cc4ccccc4F)c4ncccc34)nc3c2C(C)(C)C(=O)N3)CCC1` [Example 97, 2-[1-(2-fluorobenzyl)-1H-pyrazolo[3,4-b]pyridin-3-yl]-5,5-dimethyl-N-(1-methylcyclobutyl)-6-oxo-6,7-dihydro-5H-pyrrolo[2,3-d]pyrimidine-4-carboxamide], the MEC in assay [1] was 0.3 µM. The molecule further showed a pIC50 in assay [2] of 8.09.
In the case of `CC1(C)C(=O)Nc2nc(-c3nn(Cc4ccccc4F)c4ncccc34)nc(C(=O)NC3CCOCC3)c21` [Example 98, 2-[1-(2-fluorobenzyl)-1H-pyrazolo[3,4-b]pyridin-3-yl]-5,5-dimethyl-6-oxo-N-(tetrahydro-2H-pyran-4-yl)-6,7-dihydro-5H-pyrrolo[2,3-d]pyrimidine-4-carboxamide], the MEC in assay [1] came to 1 µM. The molecule further gave a pIC50 in assay [2] of 7.48.
As to `CC1(C)C(=O)Nc2nc(-c3nn(Cc4ccccc4F)c4ncccc34)nc(C(=O)Nc3cn[nH]c3)c21` [Example 100, 2-[1-(2-fluorobenzyl)-1H-pyrazolo[3,4-b]pyridin-3-yl]-5,5-dimethyl-6-oxo-N-(1H-pyrazol-4-yl)-6,7-dihydro-5H-pyrrolo[2,3-d]pyrimidine-4-carboxamide], in assay [1], the MEC was 0.3 µM. Besides, the negative-log IC50 (pIC50) in assay [2] was 8.37.
Turning to `CC1(CNC(=O)c2nc(-c3nn(Cc4ccccc4F)c4ncccc34)nc3c2C(C)(C)C(=O)N3)COC1` [Example 103, 2-[1-(2-fluorobenzyl)-1H-pyrazolo[3,4-b]pyridin-3-yl]-5,5-dimethyl-N-[(3-methyloxetan-3-yl)methyl]-6-oxo-6,7-dihydro-5H-pyrrolo[2,3-d]pyrimidine-4-carboxamide], the MEC in assay [1] was 0.3 µM. Besides, the pIC50 in assay [2] was 8.00.
For `CC1(C)C(=O)Nc2nc(-c3nn(Cc4ccccc4F)c4ncccc34)nc(C(=O)Nc3cncc(F)c3)c21` [Example 107, 2-[1-(2-fluorobenzyl)-1H-pyrazolo[3,4-b]pyridin-3-yl]-N-(5-fluoropyridin-3-yl)-5,5-dimethyl-6-oxo-6,7-dihydro-5H-pyrrolo[2,3-d]pyrimidine-4-carboxamide], the MEC in assay [1] was determined as 0.3 µM. Besides, the negative-log IC50 (pIC50) in assay [2] was 7.14.
On to `CC1(C)C(=O)Nc2nc(-c3nn(Cc4ccccc4F)c4ncccc34)nc(C(=O)Nc3cnccn3)c21` [Example 108, 2-[1-(2-fluorobenzyl)-1H-pyrazolo[3,4-b]pyridin-3-yl]-5,5-dimethyl-6-oxo-N-(pyrazin-2-yl)-6,7-dihydro-5H-pyrrolo[2,3-d]pyrimidine-4-carboxamide], for which the MEC in assay [1] is 0.3 µM. Moreover, in assay [2], the negative-log IC50 (pIC50) is 7.60.
Take `Cn1cnc(NC(=O)c2nc(-c3nn(Cc4ccccc4F)c4ncccc34)nc3c2C(C)(C)C(=O)N3)n1` [Example 109, 2-[1-(2-fluorobenzyl)-1H-pyrazolo[3,4-b]pyridin-3-yl]-5,5-dimethyl-N-(1-methyl-1H-1,2,4-triazol-3-yl)-6-oxo-6,7-dihydro-5H-pyrrolo[2,3-d]pyrimidine-4-carboxamide]: the MEC in assay [1] is 0.3 µM. Also, the negative logarithm of the IC50 (pIC50) in assay [2] was 7.41.
`CN(CC1CC1)C(=O)c1nc(-c2nn(Cc3ccccc3F)c3ncccc23)nc2c1C(C)(C)C(=O)N2` [Example 111, N-(cyclopropylmethyl)-2-[1-(2-fluorobenzyl)-1H-pyrazolo[3,4-b]pyridin-3-yl]-N,5,5-trimethyl-6-oxo-6,7-dihydro-5H-pyrrolo[2,3-d]pyrimidine-4-carboxamide]: the MEC in assay [1] worked out at 0.01 µM. In assay [2], the pIC50 was 6.15.
With `CC(C)N(C)C(=O)c1nc(-c2nn(Cc3ccccc3F)c3ncccc23)nc2c1C(C)(C)C(=O)N2` [Example 112, 2-[1-(2-fluorobenzyl)-1H-pyrazolo[3,4-b]pyridin-3-yl]-N,5,5-trimethyl-6-oxo-N-(propan-2-yl)-6,7-dihydro-5H-pyrrolo[2,3-d]pyrimidine-4-carboxamide], in assay [1], the MEC came to 0.03 µM. The molecule further gave a pIC50 in assay [2] of 7.03.
Take `Cc1cccnc1NC(=O)c1nc(-c2nn(Cc3ccccc3F)c3ncccc23)nc2c1C(C)(C)C(=O)N2` [Example 113, 2-[1-(2-fluorobenzyl)-1H-pyrazolo[3,4-b]pyridin-3-yl]-5,5-dimethyl-N-(3-methylpyridin-2-yl)-6-oxo-6,7-dihydro-5H-pyrrolo[2,3-d]pyrimidine-4-carboxamide]: the MEC in assay [1] was 0.1 µM. This molecule gave a negative-log IC50 (pIC50) in assay [2] of 7.36.
For `CC1(C)C(=O)Nc2nc(-c3nn(Cc4ccccc4F)c4ncccc34)nc(C(=O)NCCO)c21` [Example 114, 2-[1-(2-fluorobenzyl)-1H-pyrazolo[3,4-b]pyridin-3-yl]-N-(2-hydroxyethyl)-5,5-dimethyl-6-oxo-6,7-dihydro-5H-pyrrolo[2,3-d]pyrimidine-4-carboxamide], the MEC in assay [1] is 0.3 µM. The negative-log IC50 (pIC50) in assay [2] is 7.82.
As to `CC1(C)C(=O)Nc2nc(-c3nn(Cc4ccccc4F)c4ncccc34)nc(C(=O)NCc3ccccc3)c21` [Example 115, N-benzyl-2-[1-(2-fluorobenzyl)-1H-pyrazolo[3,4-b]pyridin-3-yl]-5,5-dimethyl-6-oxo-6,7-dihydro-5H-pyrrolo[2,3-d]pyrimidine-4-carboxamide], the MEC in assay [1] was 0.1 µM. Further, in assay [2], the pIC50 was 7.39.
